# Experimental data: patent EP1097956A1, “Low endocrine disruptor polycarbonate resin” (Mitsubishi Gas Chemical Company, Inc., priority 1999, dated 2001)
# pIC50: −log10 of the molar value.
# Biological target: T1, estrogen receptor (Rattus norvegicus, UniProt P06211)
# T1 construct: from tissue; host or cells: uterus of matured female rat, homogenate supernatant (105,000 x G)
# T1 sequence (P06211 1-600): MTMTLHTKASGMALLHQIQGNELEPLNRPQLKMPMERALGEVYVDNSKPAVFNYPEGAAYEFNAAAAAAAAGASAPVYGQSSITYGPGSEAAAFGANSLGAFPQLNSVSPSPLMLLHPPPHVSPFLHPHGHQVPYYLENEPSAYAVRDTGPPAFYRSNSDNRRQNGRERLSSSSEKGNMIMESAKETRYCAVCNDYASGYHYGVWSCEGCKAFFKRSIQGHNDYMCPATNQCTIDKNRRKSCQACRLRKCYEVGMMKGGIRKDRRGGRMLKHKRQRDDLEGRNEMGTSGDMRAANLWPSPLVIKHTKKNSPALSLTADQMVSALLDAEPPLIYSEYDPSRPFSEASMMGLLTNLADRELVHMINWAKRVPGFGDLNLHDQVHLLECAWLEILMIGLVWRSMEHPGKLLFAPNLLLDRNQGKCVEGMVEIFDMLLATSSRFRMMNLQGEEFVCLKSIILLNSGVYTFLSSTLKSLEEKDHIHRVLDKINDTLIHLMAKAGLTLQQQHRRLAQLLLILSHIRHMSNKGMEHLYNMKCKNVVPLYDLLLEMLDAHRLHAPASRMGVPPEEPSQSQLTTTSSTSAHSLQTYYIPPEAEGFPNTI
# Assay: estrogen receptor affinity by exchange curve method ([3H]-estradiol displacement, membrane specimen from rat uterus)
# Assay type: binding
# Settings: IC50, evaluated sample itself (bisphenols, phenols); concentration necessary to exchange 50% of estrogen bound receptor
# Excerpt: The smaller the numeral value, the higher is affinity between a chemical substance and estrogen receptor, i.e., the higher is so-called endocrine disruptor. […]
# Appendix J and "Medication receptor" P33-34, edited by Kazunari Takayanagi, Nanzando in Japan.
# Firstly, a matured female rat was butchered and then its uterus was taken out. Then, fatty portions adhered to tissue portion of the uterus were removed and the uterus removed fatty portions was weighed and then placed in ice. The tissue was sliced so as to form a corner of 1 to 2 mm and. The sliced tissue was put in a Polytron homogenizer cooled in advance in ice and ice cooled TEDG buffer solution (10 mM tris·HCl((pH 7.6), 1.5 mM EDTA, 1 mM DTT and 10 % Glycerol) of 1.0 ml per 50 mg of tissue was added therein and homogenized for 5 seconds. The homogenate was put in a centrifugal tube cooled in advance and centrifuged for 60 minutes at 105,000×G(gravitational unit), whereby a supernatant liquid was obtained as a membrane specimen containing estrogen receptor.
# Each the reaction solution thus prepared was vacuum dried and then placed in ice.
# 1 ml of the above-prepared supernatant liquid of homoginate containing estrogen receptor was added to each tube and softly stirred and then each tube was capped to incubate at 4 °C for 20 hours. Each mixed solution was poured on a filter attached a glass filter paper and aspiration filtered and then the glass filter paper was rinsed with an ice cooled rinsing buffer solution (50 mM Tris·HCl (pH7.6)). Each the glass filter paper was dried and then each radioactivity was measured with a liquid scintillation counter.
row,SMILES,pIC50
1,"Cc1cc(C2(c3ccc(O)c(C)c3)c3ccccc3-c3ccccc32)ccc1O [BCFL, 9,9-bis(3-methyl-4-hydroxyphenyl) fluorene]",< 3.58
2,"Oc1ccc(C(c2ccccc2)(c2ccccc2)c2ccc(O)cc2)cc1 [BPBP, bis(4-hydroxyphenyl)diphenyl methane]",5.19
3,"CC(C)(c1ccc(O)cc1)c1cccc(C(C)(C)c2ccc(O)cc2)c1 [BPM, 4,4'-[1,3-phenylenebis(1-methylethylidene)] bisphenol]",> 6.54
4,"Oc1ccc(C2(c3ccc(O)cc3)CCCCC2)cc1 [BPZ, 1,1-bis(4-hydroxyphenyl) cyclohexane]",> 6.43
5,"CCCCCCCCCc1ccc(O)cc1 [NP, 4-nonylphenol]",5.39
6,"C=C(CC(C)(C)c1ccc(O)cc1)c1ccc(O)cc1 [PIPLD, 4-methyl-2,4-bis(4-hydroxyphenyl)-1-pentene]",> 6.43
7,"CC1CC(C)(C)CC(c2ccc(O)cc2)(c2ccc(O)cc2)C1 (centres unmarked) [TMBPZ, 3,3,5-trimethyl-1,1-bis(4-hydroxyphenyl)cyclohexane]",> 6.49
8,CC(C)(C)c1ccc(O)cc1 [p-t-butyl phenol],3.76

# Same assay, conditions: evaluated sample itself (bisphenols, phenols); concentration necessary to exchange 50% of estrogen bound receptor; read-out: IC50 (converted)
row,IC50,SMILES
1,< 0.297 µM,"Oc1ccc(C(c2ccc(O)cc2)(C(F)(F)F)C(F)(F)F)cc1 [BPAF, 2,2-bis(4-hydroxyphenyl) hexafluoropropane]"
2,1.72 µM,"CC(c1ccccc1)(c1ccc(O)cc1)c1ccc(O)cc1 [BPAP, 1,1-bis(4-hydroxyphenyl)-1-phenylethane]"
3,6.99 µM,"Oc1ccc(Cc2ccc(O)cc2)cc1 [BPF, bis(4-hydroxyphenyl)methane]"
4,< 8.85 µM,"Oc1ccc(C2(c3ccc(O)cc3)c3ccccc3-c3ccccc32)cc1 [BPFL, 9,9-bis(4-hydroxyphenyl) fluorene]"
5,< 4.18 µM,"Cc1cc(C2(c3cc(C)c(O)c(C)c3)c3ccccc3-c3ccccc32)cc(C)c1O [BXFL, 9,9-bis(4-hydroxy-3,5-dimethylphenyl) fluorene]"
6,2.92 µM,"CC1(C)CC2(CC(C)(C)c3ccc(O)cc32)c2cc(O)ccc21 [SPI, 6,6'-dihydroxy-3,3,3',3'-tetramethyl-1, 1'-spiro biindan]"
7,< 0.458 µM,"Oc1ccc(Sc2ccc(O)cc2)cc1 [TDP, bis(4-hydroxyphenyl) sulfide]"

row,SMILES,IC50
1,"CC(C)(c1ccc(O)cc1)c1ccc(O)cc1 [BPA, 2,2-bis(4-hydroxyphenyl) propane]",32 µM

# System: rat
# Assay: not given
# Settings: cited from earlier work
row,SMILES,dosage by which the action like the female hormone was developed
1,"CC(C)(c1ccc(O)cc1)c1ccc(O)cc1 [BPA, 2,2-bis(4-hydroxyphenyl) propane]",800 mg/kg/day

# System: not given
# Assay: not given
# Settings: stipulated by the U. S. Environmental Protection Agency and the Japanese Ministry of Health and Welfare; cited from earlier work
row,SMILES,acceptabel daily intake
1,"CC(C)(c1ccc(O)cc1)c1ccc(O)cc1 [BPA, 2,2-bis(4-hydroxyphenyl) propane]",50 µg/kg/day

# System: pregnant mice
# Assay: not given
# Settings: 2 and 20 µg/kg/day dosed orally to pregnant mice; cited from earlier work
SMILES,efficiency of sperm production in male offspring,prostate weights in male offspring
"CC(C)(c1ccc(O)cc1)c1ccc(O)cc1 [BPA, 2,2-bis(4-hydroxyphenyl) propane]",decrease in the efficiency of sperm production,increase in prostate weights
